{
  "source": "paper PMC3130094",
  "about": "(Pharmacological research : the official journal of the …, 2011)",
  "key": {"HEK 293 cells": {"system": "HEK 293 cells", "assay": "Ratiometric Fura-2 calcium imaging, HEK 293 cells", "assay_type": "cell-based, human"}, "HEK 293T cells [1]": {"system": "HEK 293T cells", "assay": "Ratiometric Fura-2 calcium imaging, HEK 293T cells", "assay_type": "cell-based, human", "details": "for Effect on ET-1 (30 nM) calcium transient: MDL-12,330A 50 µM, five minutes before ET-1, HEK 293T cells"}, "ND7/104 cells [2]": {"system": "ND7/104 cells", "assay": "Ratiometric Fura-2 calcium imaging, ND7/104 cells", "assay_type": "cell-based, rat/mouse hybrid", "details": "for Effect on ET-1 (30 nM) calcium transient: MDL-12,330A 50 µM, five minutes before ET-1, ND7/104 cells"}, "[3]": {"system": "ET receptors (ETA/ETB) on intact ND7/104 cells", "assay": "Competition binding against 30 pM [125I]-ET-1, intact ND7/104 cells", "design": "species or system rat/mouse hybrid", "details": "100 nM BQ-123, ND7/104 cells"}, "[4]": {"system": "ET receptors (ETA/ETB) on intact HEK 293T cells"}, "[5]": {"molecular_target": "T1, ET receptors (ETA/ETB) on intact HEK 293T cells (Homo sapiens, UniProt P25101)", "T1 sequence (P25101 21-427)": "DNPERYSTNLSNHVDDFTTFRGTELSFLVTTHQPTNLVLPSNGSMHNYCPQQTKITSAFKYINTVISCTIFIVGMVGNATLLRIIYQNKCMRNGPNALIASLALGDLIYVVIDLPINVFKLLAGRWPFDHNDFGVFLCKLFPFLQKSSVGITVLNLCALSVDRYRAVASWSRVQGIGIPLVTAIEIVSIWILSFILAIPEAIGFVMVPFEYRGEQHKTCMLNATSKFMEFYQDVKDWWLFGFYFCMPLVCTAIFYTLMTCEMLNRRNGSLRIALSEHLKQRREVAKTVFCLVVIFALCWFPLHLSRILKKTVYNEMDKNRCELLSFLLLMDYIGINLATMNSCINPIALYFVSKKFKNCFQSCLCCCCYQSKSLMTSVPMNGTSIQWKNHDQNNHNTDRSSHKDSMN", "details": "read-out: High affinity KI BQ-123; HEK 293T cells, high affinity site (assumed ETA)"}, "[6]": {"system": "ET receptors (ETA/ETB) on intact HEK 293 cells", "details": "for Ki: HEK 293 cells"}, "HEK 293T cells [7]": {"system": "HEK 293T cells", "assay": "Intracellular cAMP enzyme immunoassay, HEK 293T cells", "assay_type": "cell-based, human", "details": "ET-1 0.3 nM to 300 nM, 10 min 37 °C"}, "ND7/104 cells [8]": {"system": "ND7/104 cells", "assay": "Intracellular cAMP enzyme immunoassay, ND7/104 cells", "assay_type": "cell-based, rat/mouse hybrid", "details": "ET-1 0.3 nM to 300 nM, 10 min 37 °C"}, "[9]": {"molecular_target": "cloned tagged-ETB receptors", "details": "HEK 293 membranes ref [33]; cited from earlier work"}, "[10]": {"system": "ET receptors on intact ND7/104 cells", "assay": "[125I]-ET-1 saturation binding to intact ND7/104 cells", "design": "species or system rat/mouse hybrid", "details": "read-out: KD (I-ET-1), 4 °C"}, "[11]": {"molecular_target": "ET receptors in pituitary tissue sections", "details": "pituitary tissue sections ref [32]; cited from earlier work"}, "[12]": {"molecular_target": "cloned tagged-ETA receptors", "details": "HEK 293 membranes ref [33]; cited from earlier work"}},
  "note": "Values joined by “and” are separate entries in the source; they are usually repeats but may differ in a detail not shown here. Equal entries are not always repeated. “Also recorded” adds a separate entry of the source. Where two headings read alike, the source gives them in different places. Non-standard residues stand in square brackets, D forms with d. Residues, ends and D or L forms follow the SMILES beside them. No end group written: not given here.",
  "data": [
    {"compound": "Nc1ncnc2c1ncn2[C@@H]1O[C@H](COP(=O)(O)OP(=O)(O)OP(=O)(O)O)[C@@H](O)[C@H]1O", "note": "[ATP]", "values": [
      {"measurement": "Calcium response to ATP", "setting": "HEK 293 cells; ATP 40 µM", "value": "induced a strong and comparable calcium response"},
      {"measurement": "Calcium response to ATP", "setting": "HEK 293T cells [1]; ATP 40 µM, HEK 293T cells", "value": "induced a strong and comparable calcium response"},
      {"measurement": "Calcium response to ATP", "setting": "ND7/104 cells [2]; ATP 40 µM, ND7/104 cells", "value": "induced a strong and comparable calcium response"}
    ]},
    {"compound": "CC(C)C[C@@H]1NC(=O)[C@@H](C(C)C)NC(=O)[C@@H]2CCCN2C(=O)[C@@H](CC(=O)O)NC(=O)[C@@H](Cc2c[nH]c3ccccc23)NC1=O", "note": "[BQ-123] (cyclo(L[dW][dD]P[dV]); ring closure inferred)", "values": [
      {"measurement": "Effect on ET-1 (30 nM) stimulated calcium increase", "setting": "HEK 293T cells [1]; BQ-123 50 nM, HEK 293T cells", "value": "blocked; also recorded: completely prevented"},
      {"measurement": "ETA binding defined by BQ-123, share of specific [125I]-ET-1 binding", "setting": "[3]", "value": "75.2 ± 22.2% and 75 ± 22%"},
      {"measurement": "Effect on ET-1 (30 nM) stimulated calcium increase", "setting": "ND7/104 cells [2]; BQ-123 50 nM, ND7/104 cells", "value": "blocked; also recorded: completely prevented"},
      {"measurement": "ETA binding defined by BQ-123, share of specific [125I]-ET-1 binding", "setting": "[4]; 100 nM BQ-123, HEK 293T cells", "value": "75 ± 9", "unit": "%"},
      {"measurement": "Low affinity Ki BQ-123", "setting": "[4]; HEK 293T cells, low affinity site", "value": "too high to allow its estimation"},
      {"measurement": "Ki", "setting": "[4]; read-out: KI (BQ-123), HEK 293T cells, 30 pM [125I]-ET-1", "value": "0.21 ± 0.01", "unit": "nM"},
      {"measurement": "Ki", "setting": "[5]", "value": "5.47 ± 1.52", "unit": "nM"},
      {"measurement": "ETA binding defined by BQ-123, share of specific [125I]-ET-1 binding", "setting": "[6]; 100 nM BQ-123, HEK 293 cells", "value": "85.3 ± 19% and 85 ± 19%"},
      {"measurement": "Ki", "setting": "[6]; read-out: KI (BQ-123), 30 pM [125I]-ET-1", "value": "0.39 ± 0.14", "unit": "nM"},
      {"measurement": "Ki", "setting": "[6]; read-out: Low affinity KI BQ-123, low affinity site", "value": "195 ± 136", "unit": "nM"}
    ]},
    {"compound": "CCCC[C@@H](NC(=O)[C@@H](Cc1cn(C(=O)OC)c2ccccc12)NC(=O)[C@H](CC(C)(C)C)NC(=O)N1[C@H](C)CCC[C@@H]1C)C(=O)O", "note": "[BQ-788]", "values": [
      {"measurement": "Effect on ET-1 (30 nM) stimulated calcium increase", "setting": "HEK 293T cells [1]; BQ-788 100 nM (Figure 6B: 100 and 200 nM), HEK 293T cells", "value": "without effect; also recorded: not affected"},
      {"measurement": "Effect on ET-1 (30 nM) stimulated calcium increase", "setting": "ND7/104 cells [2]; BQ-788 100 nM (Figure 6B: 100 and 200 nM), ND7/104 cells", "value": "without effect; also recorded: not affected"}
    ]},
    {"compound": "Cc1cc(C)cc(C(=O)N(C)[C@H](Cc2ccc(-c3ccccc3)cc2)C(=O)N[C@@H](Cc2c[nH]c3ccccc23)C(=O)O)c1", "note": "[IRL-2500]", "values": [
      {"measurement": "Effect on ET-1 (30 nM) stimulated calcium increase", "setting": "HEK 293T cells [1]; IRL-2500 50 nM, HEK 293T cells", "value": "without effect; also recorded: not affected"},
      {"measurement": "Effect on ET-1 (30 nM) stimulated calcium increase", "setting": "ND7/104 cells [2]; IRL-2500 50 nM, ND7/104 cells", "value": "without effect; also recorded: not affected"}
    ]},
    {"compound": "Cl.c1ccc(C2CCCC2NC2=NCCCCCCCCCCC2)cc1", "note": "(stereo not drawn) [MDL-12,330A]", "values": [
      {"measurement": "Basal [Ca2+]in on application of antagonist/inhibitor alone", "setting": "HEK 293T cells [1]; HEK 293T cells, MDL 12,330A 50 µM, data not shown", "value": "did not produce a significant effect; also recorded: did not elicit a significant rise of [Ca^2+]in"},
      {"measurement": "Effect on ET-1 (30 nM) calcium transient", "setting": "HEK 293T cells [1]", "value": "same outcome"},
      {"measurement": "Effect on ET-1 (30 nM) calcium transient", "setting": "HEK 293T cells [1]; listed as MDL 12,330A", "value": "did not affect negatively"},
      {"measurement": "Effect on calcium response to ATP", "setting": "ND7/104 cells [2]; MDL 12,330A 50 µM preincubation, ND7/104 cells", "value": "markedly diminished response to ATP"},
      {"measurement": "Effect on ET-1 (30 nM) calcium transient", "setting": "ND7/104 cells [2]", "value": "same outcome"},
      {"measurement": "Effect on ET-1 (30 nM) calcium transient", "setting": "ND7/104 cells [2]; listed as MDL 12,330A", "value": "did not affect negatively"},
      {"measurement": "Basal [Ca2+]in on application of antagonist/inhibitor alone", "setting": "ND7/104 cells [2]; ND7/104 cells, MDL 12,330A 50 µM, data not shown", "value": "did not produce a significant effect; also recorded: did not elicit a significant rise of [Ca^2+]in"}
    ]},
    {"compound": "COc1ccc2c(c1)CC[C@@H]1[C@@H]2CC[C@]2(C)[C@@H](NCCCCCCN3C(=O)C=CC3=O)CC[C@@H]12", "note": "[U73122]", "values": [
      {"measurement": "Effect on ET-1 (30 nM) induced calcium transient", "setting": "HEK 293T cells [1]; U73122 10 µM, 30 min pretreatment, normalized to ionomycin, HEK 293T cells", "value": "complete inhibition"},
      {"measurement": "Effect on calcium response to ATP", "setting": "HEK 293T cells [1]; U73122 10 µM, HEK 293T cells", "value": "abrogated"},
      {"measurement": "Effect on ET-1 (30 nM) induced calcium transient", "setting": "ND7/104 cells [2]; U73122 10 µM, 30 min pretreatment, normalized to ionomycin, ND7/104 cells", "value": "complete inhibition"},
      {"measurement": "Effect on calcium response to ATP", "setting": "ND7/104 cells [2]; U73122 10 µM, ND7/104 cells", "value": "abrogated"},
      {"measurement": "Effect on response elicited by bradykinin", "setting": "ND7/104 cells [2]; U73122, ND7/104 cells, data not shown", "value": "does not inhibit"}
    ]},
    {"compound": "Endothelin-1 (CSCSSLMDKECVYFCHLDIIW; ends and bridges not checked; cysteine pairing not given here; UniProt P05305 53-73, looked up) [ET-1]", "values": [
      {"measurement": "[Ca2+]in response to ET-1 (normalized to ATP 40 µM)", "setting": "HEK 293 cells; ET-1 30 or 100 nM", "value": "neither of these concentrations of ET-1 produced a detectable increase of [Ca^2+]in; also recorded: does not promote intracellular calcium mobilization; also recorded: this effect was not observed"},
      {"measurement": "Intracellular cAMP accumulation", "setting": "HEK 293T cells [7]", "value": "did not record a rise of intracellular cAMP; also recorded: None of the ET-1 concentrations tested produced a significant effect"},
      {"measurement": "Share of cells showing [Ca2+]in mobilization", "setting": "HEK 293T cells [1]; ET-1 30 nM and 100 nM, HEK 293T cells", "value": "~ 35%"},
      {"measurement": "[Ca2+]in response to ET-1 (normalized to ATP 40 µM)", "setting": "HEK 293T cells [1]; ET-1 30 or 100 nM, HEK 293T cells", "value": "caused an increase in [Ca]in"},
      {"measurement": "[Ca2+]in response to ET-1 in the absence of extracellular calcium", "setting": "HEK 293T cells [1]; calcium-free Ringer, HEK 293T cells", "value": "not diminished; also recorded: did not affect the response"},
      {"measurement": "Share of cells showing [Ca2+]in mobilization", "setting": "ND7/104 cells [2]; ET-1 30 nM and 100 nM, ND7/104 cells", "value": "~ 35%"},
      {"measurement": "[Ca2+]in response to ET-1 (normalized to ATP 40 µM)", "setting": "ND7/104 cells [2]; ET-1 30 or 100 nM, ND7/104 cells", "value": "caused an increase in [Ca]in"},
      {"measurement": "[Ca2+]in response to ET-1 in the absence of extracellular calcium", "setting": "ND7/104 cells [2]; calcium-free Ringer, ND7/104 cells", "value": "not diminished; also recorded: did not affect the response"},
      {"measurement": "Intracellular cAMP accumulation", "setting": "ND7/104 cells [8]", "value": "did not record a rise of intracellular cAMP; also recorded: None of the ET-1 concentrations tested produced a significant effect"}
    ]},
    {"compound": "[^125I]-ET-1: radio-iodinated endothelin-1 used as radioligand", "values": [
      {"measurement": "Kd", "setting": "[9]", "value": "~0.01", "unit": "nM"},
      {"measurement": "Kd", "setting": "[10]", "value": "0.07 ± 0.01", "unit": "nM"},
      {"measurement": "Kd", "setting": "[11]", "value": 0.071, "unit": "nM"},
      {"measurement": "Kd", "setting": "[12]", "value": "~0.03", "unit": "nM"}
    ]}
  ]
}
